Data taken from patent US20050090399A1, “Phenyl substituted heterocyclic compounds useful as herbicides” (priority 2002, published 2005).

How the values were obtained:
Alopecurus (Alo) = experiment: Pre-emergence herbicidal action, greenhouse pot test: Alopecurus; type: in vivo; details: 125 g/ha
Description: (§1) Monocotyledonous and dicotyledonous weeds and summer wheat (Lona) are sown in standard soil in plastics pots. Directly after sowing, the test compounds are applied as EC 125 and WP 10 (without additional surface-active compounds). The rate of application is 125 g of active substance per ha. The test plants are then grown on in the greenhouse under optimum conditions. Evaluation is carried out 20 days after application: 100 denotes 100% damage to the plant in question.
(§2) Test plants: Agrostis (Agr), Alopecurus (Alo), Phalaris (Pha), Lolium (Lol) and Setaria (Set).

summer wheat (Lona) = experiment: Pre-emergence herbicidal action, greenhouse pot test: damage to summer wheat; type: in vivo; details: 125 g/ha
Description: as §1, §2

Lolium (Lol) = experiment: Pre-emergence herbicidal action, greenhouse pot test: Lolium; type: in vivo; details: 125 g/ha
Description: as §1, §2

Setaria (Set) = experiment: Pre-emergence herbicidal action, greenhouse pot test: Setaria; type: in vivo; details: 125 g/ha
Description: as §1, §2

Agrostis (Agr) = experiment: Pre-emergence herbicidal action, greenhouse pot test: Agrostis; type: in vivo; details: 125 g/ha
Description: as §1, §2

Phalaris (Pha) = experiment: Pre-emergence herbicidal action, greenhouse pot test: Phalaris; type: in vivo; details: 125 g/ha
Description: as §1, §2

[1] = applied directly after sowing as WP 10, evaluation 20 days after application
[2] = applied directly after sowing as EC 125, evaluation 20 days after application

SMILES | melting point | Herbicidal action (damage to the plant), Alo (Alopecurus (Alo); [1]) | Herbicidal action (damage to the plant), wheat (summer wheat (Lona); [1]) | Herbicidal action (damage to the plant), Lol (Lolium (Lol); [1]) | Herbicidal action (damage to the plant), Set (Setaria (Set); [1]) | Herbicidal action (damage to the plant), Agr (Agrostis (Agr); [1]) | Herbicidal action (damage to the plant), Pha (Phalaris (Pha); [1]) | further results
CCCCCCCCCCCC(=O)Oc1c(-c2c(CC)cc(C)cc2CC)c(=O)n2n1CCOCC2 [1.01] | 106 to 107 °C | – | – | – | – | – | – | –
CCCCCCCCCCCCCCCC(=O)Oc1c(-c2c(CC)cc(C)cc2CC)c(=O)n2n1CCOCC2 [1.02] | 91 to 92 °C | – | – | – | – | – | – | –
CCCCCCCC/C=C\CCCCCCCC(=O)Oc1c(-c2c(CC)cc(C)cc2CC)c(=O)n2n1CCOCC2 [compound 1.03] | – | 90% | 10% | 90% | 100% | 98% | 100% | –
CCCCCCCC/C=C\CCCCCCCCC(C)(C)C(=O)Oc1c(-c2c(CC)cc(C)cc2CC)c(=O)n2n1CCOCC2 [compound 1.05b] | – | 80% | 0% | 70% | 70% | 80% | 100% | –
CCCCCCCC/C=C\CCCCCCCCC(C)C(=O)Oc1c(-c2c(CC)cc(C)cc2CC)c(=O)n2n1CCOCC2 (centres unmarked) [compound 1.12b] | – | 90% | 10% | 80% | 90% | 95% | 100% | –
CCc1cc(C)cc(CC)c1C1C(=O)N2CCOCCN2C1=O [compound A, 8-(2,6-diethyl-4-methyl-phenyl)-tetrahydropyrazolo[1,2-d][1,4,5]oxadiazepine-7,9-dione, reference compound] | – | – | – | – | – | – | – | Herbicidal action (damage to the plant), Alo (Alopecurus (Alo); [2]): 100%; Herbicidal action (damage to the plant), wheat (summer wheat (Lona); [2]): 20%; Herbicidal action (damage to the plant), Lol (Lolium (Lol); [2]): 98%; Herbicidal action (damage to the plant), Set (Setaria (Set); [2]): 100%; Herbicidal action (damage to the plant), Agr (Agrostis (Agr); [2]): 95%; Herbicidal action (damage to the plant), Pha (Phalaris (Pha); [2]): 100%
